Like-named read-outs stand apart in the source and are kept apart here.
Key:
[1] = Hepatic microsomal stability assay, mouse; assay type: in vitro ADME; settings: CLint, 1 μM, 0.2 mg/mL microsomes, NADPH, 30 min
Description: (§1) Disappearance of the parent compound over time was measured by using the amount of drug at time zero as a reference. After 5 min of preincubation, 1 mM NADPH (final concentration; the same applies to the following) was added to a mixture containing 1 μM of the compound, 0.2 mg/mL of human or mouse liver microsomes (Sekisui XenoTech), 1 mM EDTA and 0.1 M phosphate buffer (pH 7.4). The mixture solution was incubated at 37 °C for 30 min with rotation at 60 rpm. An aliquot of 50 μL of the incubation mixture was added to 250 μL of chilled acetonitrile/internal standard (IS, methyltestosterone). After centrifugation at 3150 × g for 15 min at 4 °C, the supernatants were analyzed by LC-MS/MS. Hepatic microsomal stability (mL/min/kg, CLint) was calculated according to a previous report, using 48.8 (human) or 45.4 (mouse) mg MS protein/g liver and 25.7 (human) or 87.5 (mouse) g liver/kg body weight as scaling factors. Two technical replicates were performed.

[2] = Hepatic microsomal stability assay, human; assay type: in vitro ADME; settings: CLint, 1 μM, 0.2 mg/mL microsomes, NADPH, 30 min
Description: as §1

C2C12 cells = experiment: Quantification of mitochondrial DNA (mtDNA/nDNA ratio); assay type: cell-based, mouse; settings: C2C12, 10 μM
Description: Murine myoblast C2C12 cells were used for various cellular experiments in this study. Two different sources of C2C12 cells were used depending on the experiment: C2C12 cells obtained from RIKEN BRC (RCB0987) were used for gene expression, mtDNA quantification, and mitochondrial morphology analysis; C2C12 cells from ATCC (CRL-1772) were used for OCR analysis. Cells were cultured in Dulbecco’s Modified Eagle Medium (DMEM; Sigma-Aldrich or Nacalai Tesque), supplemented with 10% FBS and 1% penicillin–streptomycin. Cells were maintained in a humidified incubator at 37°C with 5% CO2.
To generate mMITOL-knockout C2C12 cells, CRISPR-Cas9 vectors were constructed. Single-guide RNAs (sgRNAs) targeting the mouse MITOL gene were designed using the online tool CRISPOR (http://crispor.org). The oligonucleotide pair corresponding to the mMITOL guide RNA (gRNA sequence, 5′-[…]-3′) was annealed and ligated into the PX459 vector (48139, Addgene). C2C12 cells were transfected using Lipofectamine 3000 (Thermo Fisher Scientific), and knockout clones were selected by serial dilution.
To assess mitochondrial DNA (mtDNA) content, the mtDNA/nuclear DNA (nDNA) ratio was determined by extracting DNA from C2C12 cells using the NucleoSpin Tissue Kit (Takara Bio), followed by real-time quantitative PCR analysis with specific primer sets for mtDNA (16S rRNA or ND1) and nDNA (Hexokinase 2; HK2) (Supplementary Table 2). Real-time quantitative PCR was performed using TB Green Premix Ex Taq II (Takara Bio) and a Thermal Cycler Dice Real-Time System (Takara Bio). The analysis of mtDNA/nDNA ratios was conducted using the ΔΔCt method as previously described.

[3] = In vivo pharmacokinetics, single oral dose; design: species or system mouse; settings: mice; for AUC(0-inf) / Cmax / Tmax / half-life / CL/F: male, C57BL/6 N, mouse, plasma; for CL/F: read-out: CLtot/F; for time to reach maximum plasma concentration (Cmax): oral, both 10 mg/kg and 100 mg/kg
Description: All mouse experiments were approved by and conducted in accordance with the guidelines of the Animal Experiment Committee of the University of Tokyo (permission number: P29-24). The compounds were suspended in 0.5% methylcellulose and orally administered to 8-week-old male C57BL/6 N mice (Oriental Yeast) following an overnight fast. The dosage of the compound was 10 or 100 mg/10 mL/kg. Serial blood samples ( < 50 μL per time point) were collected from the caudal vein of each mouse at 15 and 30 min, and at 1, 2, 4, 6 and 24 h post-dose using EM MYSTAR Hematocrit Capillary treated with heparin (AS ONE). Plasma was obtained by centrifugation of the blood samples. After the final blood sampling at 24 h, the mice were humanely euthanized.
Before pharmacokinetic analyses, plasma concentrations were averaged at each time point. Concentrations below the limit of quantitation were excluded from the analysis. Pharmacokinetic analyses were conducted using PhoenixWinNonlin version 8.3 (Pharsight Corp). The maximum plasma concentrations (Cmax) and times to achieve maximum plasma concentrations (Tmax) were obtained directly from the plasma concentration-time curves. The area under the concentration-time curve from zero to infinity (AUC∞) was obtained using the linear trapezoidal method in the noncompartmental analysis module. The software was allowed to determine the best-fit line for the elimination slope for all calculations. Other parameters such as elimination half-life period (t1/2), the apparent total body clearance CLtot/F, and volume of distribution Vdz/F were further calculated.
(§2) An LCMS-8060 instrument equipped with a Shimadzu Nexera series LC system (Shimadzu) was used. Berberrubine and IS were analyzed in multiple reaction monitoring mode under electronspray ionization conditions. The analytical column used was a CAPCELL PAK C18 MGIII (3 μm × 2.0 mm ID × 35 mm; OSAKA SODA) at 50 °C. The gradient mobile phase consisted of 0.1% formic acid in water (mobile phase A) and 0.1% formic acid in acetonitrile (mobile phase B) at a total flow rate of 1 mL/min. The initial mobile phase composition was 10% B, which was held constant for 0.5 min, increased in a linear fashion to 90% B over 1 min, then held constant for 0.8 min, and finally brought back to the initial condition of 10% B over 0.01 min and reequilibrated for 1 min. The transitions (precursor ion > product ion) of berberrubine and IS (methyl testosterone) are 322.11 > 307.1 and 303.1 > 109.1 (positive), respectively.

[4] = Repeated oral administration: plasma concentration and tissue distribution; assay type: in vivo, mouse; settings: mice, 7 days
Description: In the repeated administration study, animals were treated according to the group allocations as described in the main text and corresponding to Supplementary Figure 2d. Compounds were administered orally either via drinking water or mixed feed for 7 or 28 days, and plasma, brain, heart, and skeletal muscle samples were collected at the final time point (8:00–10:00 a.m.) on the day of sacrifice (n = 4 per group). Blood was drawn from the abdominal vena cava under terminal anesthesia and plasma was separated by centrifugation using heparinized tubes. Tissue samples were homogenized with four volumes of phosphate-buffered saline. Plasma and tissue homogenate samples were precipitated with acetonitrile containing an internal standard (IS) at a volume fourfold or greater than that of the sample, and then centrifuged at 15,000 × g for 10 min at 4 °C. The resulting supernatants were analyzed by LC-MS/MS.
as §2

[5] = 2 mg/mL AcA-BRB in drinking water

SMILES | Liver microsomal metabolic stability mouse (pH7.4) [1] [mL/min/kg] | Liver microsomal metabolic stability human (pH7.4) [2] [mL/min/kg] | mitochondrial abundance (mtDNA 16S rRNA or ND1 / nuclear HK2) (C2C12 cells) | AUC(0-inf) ([3]; single oral gavage 10 mg/kg) [ng·h/mL] | Cmax ([3]; single oral gavage 10 mg/kg) [ng/mL] | Tmax ([3]; single oral gavage 10 mg/kg) [min] | half-life ([3]; single oral gavage 10 mg/kg) [min] | CL/F ([3]; single oral gavage 10 mg/kg) [mL/min/kg] | AUC(0-inf) ([3]; single oral gavage 100 mg/kg) [ng·h/mL] | Cmax ([3]; single oral gavage 100 mg/kg) [ng/mL] | Tmax ([3]; single oral gavage 100 mg/kg) [min] | half-life ([3]; single oral gavage 100 mg/kg) [min] | CL/F ([3]; single oral gavage 100 mg/kg) [mL/min/kg] | time to reach maximum plasma concentration (Cmax) [3] [h] | Vdz/F ([3]; single oral gavage 10 mg/kg) [L/kg] | Vdz/F ([3]; single oral gavage 100 mg/kg) [L/kg] | plasma berberrubine concentration compared to all other groups ([4]; 2 mg/mL in drinking water) | berberrubine concentration in the heart compared to other tissues [4, 5] | berberrubine level in the brain [4, 5]
COc1ccc2cc3[n+](cc2c1O)CCc1cc2c(cc1-3)OCO2 [AcA-BRB, berberrubine acetic acid adduct] | 1794 | < 22.0 | significantly increased | 95.7 | 101 | 15 | 101 | 1740 | 2130 | 3060 | 15 | 259 | 783 | ≤ 0.25 | 253 | 292 | significantly higher | – | –
COc1ccc2cc3n(cc-2c1=O)CCc1cc2c(cc1-3)OCO2 [Q-BRB, quinoid-type berberrubine] | 1839 | < 22.0 | significantly increased | 76.5 | 126 | 15 | 89.4 | 2180 | 5110 | 8340 | 15 | 299 | 326 | ≤ 0.25 | 281 | 141 | – | – | –
COc1ccc2cc3[n+](cc2c1O)CCc1cc2c(cc1-3)OCO2 [berberrubine] | – | – | – | – | – | – | – | – | – | – | – | – | – | – | – | – | – | tendency toward higher concentrations | exceptionally low

From paper PMC13091788 (NPJ Aging, 2026)
